In brackets after ≈: the same amount, converted by molar mass. Like-named read-outs stand apart in the source and are kept apart here.
Assays:
[1] = for mass change (GVS): between 0-90% RH
Experimental: Sorption isotherms were obtained using a SMS DVS Intrinsic moisture sorption analyser, controlled by DVS Intrinsic Control software v1.0.0.30. The sample temperature was maintained at 25° C. by the instrument controls. The humidity was controlled by mixing streams of dry and wet nitrogen, with a total flow rate of 200 ml/min. […] The weight change, (mass relaxation) of the sample as a function of % RH was constantly monitored by the microbalance (accuracy±0.005 mg). Typically 5-20 mg of sample was placed in a tared mesh stainless steel basket under ambient conditions. The sample was loaded and unloaded at 40% RH and 25° C. (typical room conditions). A moisture sorption isotherm was performed as outlined below (2 scans giving 1 complete cycle). The standard isotherm was performed at 25° C. at 10% RH intervals over a 0-90% RH range. Data analysis was undertaken in Microsoft Excel using DVS Analysis Suite v6.0.0.7. The sample was recovered after completion of the isotherm and re-analysed by XRPD.

[2] = Thermodynamic aqueous solubility; format: physicochemical; conditions: water, 25 °C, thermodynamic from solid
Experimental: The suspension was equilibrated at 25° C. for 24 hours then the pH was measured. The suspension was then filtered through a glass fibre C filter. The filtrate was then diluted by an appropriate factor e.g. 101. Quantitation was by HPLC with reference to a standard solution of approximately 0.25 mg/ml in DMSO. Different volumes of the standard, diluted and undiluted sample solutions were injected. The solubility was calculated using the peak areas determined by integration of the peak found at the same retention time as the principal peak in the standard injection.
Analysis was performed on an Agilent HP1100 series system equipped with a diode array detector and using ChemStation software vB.02.01-SR1.

Row | Structure (SMILES) | hysteresis (GVS) ([1]; 0-90% RH, 25° C.) | changes in the XRPD after GVS analysis [1] | mass change (GVS) ([1]; 25° C.) | solubility at 24 h ([2]; pH 7.42, water, pH of about 7.42, read-out: observed aqueous solubility) | solubility thermodynamic at 24 h ([2]; pH 7.42, water, pH of 7.42) | solubility at 24 h ([2]; pH 1.2, simulated gastric fluid, pH 1.2, 25° C., 24 hours, read-out: Conc. Found (solubility in aqueous solution)) | solubility at 24 h ([2]; pH 1.64, simulated gastric fluid, pH 1.64, 25° C., 24 hours, read-out: Conc. Found (solubility in aqueous solution)) | solubility at 24 h ([2]; pH 1.95, simulated gastric fluid, pH 1.95, 25° C., 24 hours, read-out: Conc. Found (solubility in aqueous solution)) | solubility at 24 h ([2]; pH 3, aqueous buffer, pH 3, 25° C., 24 hours, read-out: Conc. Found (solubility in aqueous solution)) | solubility at 24 h ([2]; pH 4, aqueous buffer, pH 4, 25° C., 24 hours, read-out: Conc. Found (solubility in aqueous solution)) | solubility at 24 h ([2]; pH 5, aqueous buffer, pH 5, 25° C., 24 hours, read-out: Conc. Found (solubility in aqueous solution)) | solubility at 24 h ([2]; pH 6, aqueous buffer, pH 6, 25° C., 24 hours, read-out: Conc. Found (solubility in aqueous solution)) | solubility at 24 h ([2]; pH 8, aqueous buffer, pH 8, 25° C., 24 hours, read-out: Conc. Found (solubility in aqueous solution)) | solubility at 24 h ([2]; pH 9, aqueous buffer, pH 9, 25° C., 24 hours, read-out: Conc. Found (solubility in aqueous solution)) | solubility at 24 h ([2]; pH 10, aqueous buffer, pH 10, 25° C., 24 hours, read-out: Conc. Found (solubility in aqueous solution))
1 | C=CC(=O)N1CCC[C@@H](n2nc(-c3ccc(Oc4ccccc4)cc3)c3c(N)ncnc32)C1 [Form B, 1-((R)-3-(4-amino-3-(4-phenoxyphenyl)-1H-pyrazolo[3,4-d]pyrimidin-1-yl)piperidin-1-yl)prop-2-en-1-one] | No hysteresis | No significant changes | 2.3 % w/w | ~0.0096 mg/mL (≈ 21.8 µM) | 0.0096 mg/mL (≈ 21.8 µM) |  |  |  |  |  |  |  |  |  | 
2 | C=CC(=O)N1CCC[C@@H](n2nc(-c3ccc(Oc4ccccc4)cc3)c3c(N)ncnc32)C1 [Form A, 1-((R)-3-(4-amino-3-(4-phenoxyphenyl)-1H-pyrazolo[3,4-d]pyrimidin-1-yl)piperidin-1-yl)prop-2-en-1-one] |  | No significant changes | < 0.3 % w/w |  |  | 1.3 mg/mL (≈ 2950 µM) | 1.07 mg/mL (≈ 2430 µM) | 0.82 mg/mL (≈ 1860 µM) | 0.1 mg/mL (≈ 227 µM) | 0.022 mg/mL (≈ 49.9 µM) | 0.017 mg/mL (≈ 38.6 µM) | 0.015 mg/mL (≈ 34.1 µM) | ~0.013 mg/mL (≈ 29.5 µM) | 0.02 mg/mL (≈ 45.4 µM) | 0.01 mg/mL (≈ 22.7 µM)

From patent publication US9296753B2, “Crystalline forms of a Bruton's tyrosine kinase inhibitor” (Pharmacyclics LLC, priority 2012, dated 2016)
